According to DBAASP:
≈ marks a conversion by molar mass, not a printed value. Each block holds one molecule with its values, some of them ahead of it.

How the values were obtained:
Test in all cases: ≥ marks a high value that may be exact or a test limit, other limits are often not marked, values filed in µg/mL are converted to µM
[1] = system: Bacillus subtilis CMCC 63501
[2] = system: Enterococcus faecalis ATCC 29212
[3] = system: Escherichia coli ATCC 25922
[4] = system: Pseudomonas aeruginosa ATCC 27853
[5] = system: Salmonella enterica subsp. enterica serovar Pullorum C79-13
[6] = system: Salmonella enterica subsp. enterica serovar Typhimurium C77-31
[7] = system: Staphylococcus aureus ATCC 29213
[8] = system: Staphylococcus epidermidis ATCC 12228
Escherichia coli UB1005 = system: Escherichia coli UB1005
[9] = system: Salmonella enterica subsp. enterica serovar Typhimurium ATCC 14028
[10] = system: Bacillus subtilis ATCC 6051
[11] = system: Escherichia coli NEB5alpha
[12] = system: Klebsiella pneumoniae ATCC 700603
[13] = system: Staphylococcus aureus ATCC 33591
[14] = system: Staphylococcus aureus ATCC 700699
[15] = system: Bacillus subtilis ATCC 6633
[16] = system: Pseudomonas aeruginosa ATCC BAA-427
[17] = system: Staphylococcus aureus ATCC 25923
[18] = system: Pseudomonas aeruginosa K799
[19] = system: Salmonella enterica subsp. enterica serovar Typhimurium ATCC 14028s
[20] = system: Staphylococcus epidermidis C621

SMILES: CC[C@H](C)[C@H](N)C(=O)N[C@@H](CCCN=C(N)N)C(=O)N[C@@H](CS)C(=O)N[C@@H](CCCN=C(N)N)C(=O)N[C@@H](CCCN=C(N)N)C(=O)N[C@@H](CCCN=C(N)N)C(=O)N[C@@H](Cc1ccccc1)C(=O)N[C@@H](CS)C(=O)N[C@@H](CCCN=C(N)N)C(=O)N[C@H](C(N)=O)[C@@H](C)CC [IRCRRRFCRI]
- MIC [1]: 4 µM (≈ 5.51 µg/mL)
- MIC [2]: 64 µM (≈ 88.2 µg/mL)
- MIC [3]: 8 µM (≈ 11 µg/mL)
- MIC [4]: 64 µM (≈ 88.2 µg/mL)
- MIC [5]: 16 µM (≈ 22 µg/mL)
- MIC [6]: ≥ 128 µM
- MIC [7]: 64 µM (≈ 88.2 µg/mL)
- MIC [8]: 64 µM (≈ 88.2 µg/mL)

SMILES: CC[C@H](C)[C@H](NC(=O)[C@H](CC(=O)O)NC(=O)[C@H](CCCCN)NC(=O)[C@H](C)NC(=O)[C@H](C)NC(=O)CNC(=O)[C@H](CCCCN)NC(=O)[C@H](CC(C)C)NC(=O)[C@@H](NC(=O)[C@H](CC(=O)O)NC(=O)[C@@H](NC(=O)[C@@H](NC(=O)CN)C(C)C)C(C)C)[C@@H](C)CC)C(=O)N[C@@H](C)C(=O)NCC(=O)N[C@@H](Cc1cnc[nH]1)C(=O)N[C@@H](CC(C)C)C(=O)N[C@@H](CC(C)C)C(=O)N[C@@H](CO)C(=O)N[C@@H](CCCCN)C(=O)N[C@H](C(=O)N[C@@H](CCSC)C(=O)N[C@@H](CC(N)=O)C(=O)N[C@@H](CCCCN)C(=O)N[C@@H](CC(C)C)C(N)=O)C(C)C [GVVDILKGAAKDIAGHLLSKVMNKL]
- MIC [3]: 12.5 µM (≈ 32.4 µg/mL)
- MIC [12]: 50 µM (≈ 130 µg/mL)
- MIC [4]: 100 µM (≈ 259 µg/mL)
- MIC [7]: 100 µM (≈ 259 µg/mL)
- MIC [13]: 25 µM (≈ 64.8 µg/mL)
- MIC [14]: ≥ 100 µM

SMILES: CC[C@H](C)[C@H](NC(=O)[C@H](C)NC(=O)CNC(=O)[C@H](CCCCN)NC(=O)[C@H](CCC(=O)O)NC(=O)[C@H](CCC(=O)O)NC(=O)[C@H](CC(=O)O)NC(=O)[C@H](CCC(=O)O)NC(=O)[C@H](CC(N)=O)NC(=O)[C@H](CCCN=C(N)N)NC(=O)CNC(=O)[C@H](CCC(N)=O)NC(=O)[C@H](CC(C)C)NC(=O)[C@@H](N)CCCCN)C(=O)N[C@H](C(=O)N[C@@H](CCCCN)C(=O)N[C@H](C(=O)N[C@@H](CCCCN)C(=O)NCC(=O)NCC(=O)N[C@@H](CC(C)C)C(=O)O)C(C)C)C(C)C [KLQGRNEDEEKGAIVKVKGGL]
- MIC [10]: ≥ 1000 µM
- MIC [11]: ≥ 1000 µM

SMILES: NC(=O)[C@H](Cc1c[nH]c2ccccc12)NC(=O)[C@H](CCCN=C(N)N)NC(=O)[C@H](Cc1c[nH]c2ccccc12)NC(=O)[C@H](CCCN=C(N)N)NC(=O)[C@H](CS)NC(=O)[C@H](Cc1ccccc1)NC(=O)[C@H](CCCN=C(N)N)NC(=O)[C@H](CCCN=C(N)N)NC(=O)[C@H](CCCN=C(N)N)NC(=O)[C@H](CS)NC(=O)[C@H](CCCN=C(N)N)NC(=O)[C@H](Cc1c[nH]c2ccccc12)NC(=O)[C@H](CCCN=C(N)N)NC(=O)[C@@H](N)Cc1c[nH]c2ccccc12 [WRWRCRRRFCRWRW]
- MIC [1]: 1 µM (≈ 2.21 µg/mL)
- MIC [2]: 2 µM (≈ 4.42 µg/mL)
- MIC [3]: 4 µM (≈ 8.83 µg/mL)
- MIC [4]: 8 µM (≈ 17.7 µg/mL)
- MIC [5]: 2 µM (≈ 4.42 µg/mL)
- MIC [6]: 4 µM (≈ 8.83 µg/mL)
- MIC [7]: 4 µM (≈ 8.83 µg/mL)
- MIC [8]: 2 µM (≈ 4.42 µg/mL)

SMILES: CC[C@H](C)[C@H](NC(=O)[C@H](CC(=O)O)NC(=O)[C@H](CCCCN)NC(=O)[C@H](C)NC(=O)[C@H](C)NC(=O)CNC(=O)[C@H](CCCCN)NC(=O)[C@H](CC(C)C)NC(=O)[C@@H](NC(=O)[C@H](CC(=O)O)NC(=O)[C@@H](NC(=O)[C@@H](NC(=O)CN)C(C)C)C(C)C)[C@@H](C)CC)C(=O)N[C@@H](C)C(=O)NCC(=O)N[C@@H](Cc1cnc[nH]1)C(=O)N[C@@H](CC(C)C)C(=O)N[C@@H](C)C(=O)N[C@@H](CO)C(=O)N[C@@H](CCCCN)C(=O)N[C@H](C(=O)N[C@@H](CCSC)C(=O)N[C@@H](C)C(=O)N[C@@H](CCCCN)C(=O)N[C@@H](CC(C)C)C(N)=O)C(C)C [GVVDILKGAAKDIAGHLASKVMAKL]
- MIC [3]: 50 µM (≈ 125 µg/mL)
- MIC [12]: 100 µM (≈ 251 µg/mL)
- MIC [4]: > 100 µM
- MIC [7]: > 100 µM
- MIC [13]: ≥ 100 µM
- MIC [14]: ≥ 100 µM

SMILES: CC(C)C[C@H](NC(=O)[C@H](CC(=O)O)NC(=O)[C@H](CC(C)C)NC(=O)[C@H](CCCCN)NC(=O)[C@H](CC(C)C)NC(=O)[C@H](CC(=O)O)NC(=O)[C@H](CC(C)C)NC(=O)[C@H](CCCCN)NC(=O)[C@H](CC(C)C)NC(=O)[C@H](CC(=O)O)NC(=O)[C@H](CC(C)C)NC(=O)[C@H](CCCCN)NC(=O)[C@@H](N)CCCN=C(N)N)C(=O)O [RKLDLKLDLKLDL]
- MIC [15]: 30 µM (≈ 47.5 µg/mL)
- MIC [3]: 30 µM (≈ 47.5 µg/mL)
- MIC [16]: ≥ 42 µM
- MIC [17]: 25 µM (≈ 39.6 µg/mL)

Other lines, results leading:

- MIC [1]: ≥ 128 µM
- MIC [2]: 64 µM (≈ 89.5 µg/mL)
- MIC [3]: 32 µM (≈ 44.8 µg/mL)
- MIC (Escherichia coli UB1005): ≥ 128 µM
- MIC [4]: > 128 µM
- MIC [5]: ≥ 64 µM
- MIC [9]: > 128 µM
- MIC [7]: > 128 µM
- MIC [8]: > 128 µM
SMILES: CC(C)[C@H](NC(=O)[C@H](CCCCN)NC(=O)[C@H](C)NC(=O)[C@H](C)NC(=O)[C@H](C)NC(=O)[C@H](CCCCN)NC(=O)[C@H](C)NC(=O)[C@H](C)NC(=O)[C@H](C)NC(=O)[C@H](CCCCN)NC(=O)[C@@H](NC(=O)[C@@H](N)Cc1c[nH]c2ccccc12)C(C)C)C(=O)N[C@@H](Cc1c[nH]c2ccccc12)C(N)=O [WVKAAAKAAAKVW]

- MIC [10]: ≥ 1000 µM
- MIC [11]: ≥ 500 µM
SMILES: CC[C@H](C)[C@H](NC(=O)[C@H](C)NC(=O)CNC(=O)[C@H](CCCCN)NC(=O)[C@H](CCC(=O)O)NC(=O)[C@H](CCC(=O)O)NC(=O)[C@H](CC(=O)O)NC(=O)[C@H](CCC(=O)O)NC(=O)[C@H](CC(=O)O)NC(=O)[C@H](CCCN=C(N)N)NC(=O)CNC(=O)[C@H](CCC(N)=O)NC(=O)[C@H](CC(C)C)NC(=O)[C@@H](N)CCCCN)C(=O)N[C@H](C(=O)N[C@@H](CCCCN)C(=O)N[C@H](C(=O)N[C@@H](CCCCN)C(=O)NCC(=O)NCC(=O)N[C@@H](CC(C)C)C(=O)O)C(C)C)C(C)C [KLQGRDEDEEKGAIVKVKGGL]

- MIC [15]: 10 µM (≈ 17.4 µg/mL)
- MIC [3]: 10 µM (≈ 17.4 µg/mL)
- MIC [16]: 10 µM (≈ 17.4 µg/mL)
- MIC [17]: 8 µM (≈ 13.9 µg/mL)
SMILES: CC(C)C[C@H](NC(=O)[C@H](CC(=O)O)NC(=O)[C@H](CC(C)C)NC(=O)[C@H](CCCCN)NC(=O)[C@H](CC(C)C)NC(=O)[C@H](CC(=O)O)NC(=O)[C@H](CC(C)C)NC(=O)[C@H](CCCCN)NC(=O)[C@H](CC(C)C)NC(=O)[C@H](CC(=O)O)NC(=O)[C@H](CC(C)C)NC(=O)[C@H](CCCCN)NC(=O)[C@H](CCCN=C(N)N)NC(=O)[C@@H](N)CCCN=C(N)N)C(=O)O [RRKLDLKLDLKLDL]

- MIC [3]: > 100 µM
- MIC [12]: > 100 µM
- MIC [4]: > 100 µM
- MIC [7]: > 100 µM
- MIC [13]: ≥ 100 µM
- MIC [14]: ≥ 100 µM
SMILES: CC[C@H](C)[C@H](NC(=O)[C@H](CC(=O)O)NC(=O)[C@H](CCCCN)NC(=O)[C@H](C)NC(=O)[C@H](C)NC(=O)CNC(=O)[C@H](CCCCN)NC(=O)[C@H](CC(C)C)NC(=O)[C@@H](NC(=O)[C@H](CC(=O)O)NC(=O)[C@@H](NC(=O)[C@@H](NC(=O)CN)C(C)C)C(C)C)[C@@H](C)CC)C(=O)N[C@@H](C)C(=O)NCC(=O)N[C@@H](Cc1cnc[nH]1)C(=O)N[C@@H](CC(C)C)C(=O)N[C@@H](C)C(=O)N[C@@H](CO)C(=O)N[C@@H](CCCCN)C(=O)N[C@H](C(=O)N[C@@H](CCSC)C(=O)N[C@@H](CC(N)=O)C(=O)N[C@@H](CCCCN)C(=O)N[C@@H](C)C(N)=O)C(C)C [GVVDILKGAAKDIAGHLASKVMNKA]

- MIC [2]: > 21 µM
- MIC (Escherichia coli UB1005): 2.62 µM (≈ 3.99 µg/mL)
- MIC [18]: 10.5 µM (≈ 16 µg/mL)
- MIC [19]: 21 µM (≈ 31.9 µg/mL)
- MIC [17]: > 21 µM
- MIC [20]: 10.5 µM (≈ 16 µg/mL)
SMILES: CC[C@H](C)[C@@H]1NC(=O)[C@H](CCCN=C(N)N)NC(=O)[C@H](C(C)C)NC(=O)[C@H](CCCN=C(N)N)NC(=O)[C@@H]2CCCN2C(=O)[C@@H](NC(=O)[C@H](CC(C)C)NC(=O)[C@@H](N)CCCN=C(N)N)CSSC[C@@H](C(=O)N[C@@H](CCCN=C(N)N)C(N)=O)NC(=O)[C@H](C(C)C)NC(=O)[C@H](CCCN=C(N)N)NC1=O [RLCPRVRIRVCR]

- MIC [11]: ≥ 1360 µM
SMILES: CC(C)C[C@H](NC(=O)[C@H](CCCN=C(N)N)NC(=O)[C@H](CC(C)C)NC(=O)[C@H](CC(C)C)NC(=O)[C@H](CCC(N)=O)NC(=O)[C@H](CCC(=O)O)NC(=O)[C@H](CC(C)C)NC(=O)[C@H](Cc1ccc(O)cc1)NC(=O)CNC(=O)[C@@H](N)CC(C)C)C(=O)O [LGYLEQLLRL]
